According to the supplement of paper PMC12463676, “Small-molecule dissolution of stress granules by redox modulation benefits ALS models” (Nature Chemical Biology, 2025):

Experiments:
lipoamide = compound: NC(=O)CCCCC1CCSS1 [lipoamide]; assay: thermal stability z-score vs DMSO; higher = more thermally stabilized by treatment; conditions: HeLa, lipoamide concentration 100 µM
Description: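 Cellular thermal proteome profiling in HeLa cells. Cells were treated with 100 µM lipoamide for 1 h, with or without 1 mM arsenate for a further 1 h, then heated to ten temperatures (37-66.3 °C), and soluble protein was quantified by TMT mass spectrometry relative to 0.1% DMSO controls. The thermal stability score (sum of log2 fold changes minus the abundance score) was transformed to a z-score; mean of n = 3 experiments.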

potassium arsenate = compound: O=[As]([O-])(O)O.[K+] [potassium arsenate]; assay: as above; conditions: HeLa; arsenate concentration 1 mM
Description: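 Cellular thermal proteome profiling in HeLa cells treated with 1 mM arsenate for 1 h (DMSO pretreatment), heated to ten temperatures (37-66.3 °C). Soluble protein was quantified by TMT mass spectrometry relative to DMSO controls; the thermal stability score was transformed to a z-score; mean of n = 3 experiments.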

[1] = arsenate co-treatment: 1 mM arsenate 1 h
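Also: each temperature applied for 3 min, abundance score taken as mean log2 fold change at the two lowest temperatures, z-score obtained by mean subtraction and division by SD.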

Sequence of UniProt Q12996 (Q12996 whole entry): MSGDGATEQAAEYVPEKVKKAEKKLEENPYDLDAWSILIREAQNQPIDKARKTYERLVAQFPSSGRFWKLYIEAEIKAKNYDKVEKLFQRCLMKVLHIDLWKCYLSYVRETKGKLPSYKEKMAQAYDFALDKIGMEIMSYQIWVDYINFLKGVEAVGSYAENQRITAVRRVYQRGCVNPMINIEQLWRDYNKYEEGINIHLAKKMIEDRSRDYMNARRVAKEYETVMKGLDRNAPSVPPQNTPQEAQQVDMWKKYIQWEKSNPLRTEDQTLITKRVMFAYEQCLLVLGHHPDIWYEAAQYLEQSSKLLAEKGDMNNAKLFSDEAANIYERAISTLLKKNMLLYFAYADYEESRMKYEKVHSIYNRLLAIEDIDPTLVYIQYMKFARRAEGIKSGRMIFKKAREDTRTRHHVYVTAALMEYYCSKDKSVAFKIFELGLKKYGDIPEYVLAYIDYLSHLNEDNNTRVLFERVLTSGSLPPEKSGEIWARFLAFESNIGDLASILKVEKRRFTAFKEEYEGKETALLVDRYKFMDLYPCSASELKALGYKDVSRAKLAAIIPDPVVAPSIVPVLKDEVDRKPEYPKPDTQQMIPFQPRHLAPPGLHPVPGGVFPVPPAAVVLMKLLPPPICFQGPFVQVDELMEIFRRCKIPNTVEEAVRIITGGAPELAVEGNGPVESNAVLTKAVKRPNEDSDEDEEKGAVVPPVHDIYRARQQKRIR
Sequence of UniProt P48509 (P48509 whole entry): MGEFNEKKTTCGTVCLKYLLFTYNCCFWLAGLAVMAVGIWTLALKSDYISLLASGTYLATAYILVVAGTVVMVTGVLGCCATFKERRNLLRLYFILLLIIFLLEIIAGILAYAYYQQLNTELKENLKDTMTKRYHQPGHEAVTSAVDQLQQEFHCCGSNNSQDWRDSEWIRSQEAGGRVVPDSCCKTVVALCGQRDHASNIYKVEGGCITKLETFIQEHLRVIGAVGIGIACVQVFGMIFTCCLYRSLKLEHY
Sequence of UniProt Q96CP2 (Q96CP2 whole entry): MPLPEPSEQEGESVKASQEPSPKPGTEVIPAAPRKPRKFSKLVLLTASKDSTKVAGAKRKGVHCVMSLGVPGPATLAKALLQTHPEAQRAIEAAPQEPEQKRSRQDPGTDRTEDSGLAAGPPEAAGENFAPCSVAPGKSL
Sequence of UniProt P54652 (P54652 whole entry): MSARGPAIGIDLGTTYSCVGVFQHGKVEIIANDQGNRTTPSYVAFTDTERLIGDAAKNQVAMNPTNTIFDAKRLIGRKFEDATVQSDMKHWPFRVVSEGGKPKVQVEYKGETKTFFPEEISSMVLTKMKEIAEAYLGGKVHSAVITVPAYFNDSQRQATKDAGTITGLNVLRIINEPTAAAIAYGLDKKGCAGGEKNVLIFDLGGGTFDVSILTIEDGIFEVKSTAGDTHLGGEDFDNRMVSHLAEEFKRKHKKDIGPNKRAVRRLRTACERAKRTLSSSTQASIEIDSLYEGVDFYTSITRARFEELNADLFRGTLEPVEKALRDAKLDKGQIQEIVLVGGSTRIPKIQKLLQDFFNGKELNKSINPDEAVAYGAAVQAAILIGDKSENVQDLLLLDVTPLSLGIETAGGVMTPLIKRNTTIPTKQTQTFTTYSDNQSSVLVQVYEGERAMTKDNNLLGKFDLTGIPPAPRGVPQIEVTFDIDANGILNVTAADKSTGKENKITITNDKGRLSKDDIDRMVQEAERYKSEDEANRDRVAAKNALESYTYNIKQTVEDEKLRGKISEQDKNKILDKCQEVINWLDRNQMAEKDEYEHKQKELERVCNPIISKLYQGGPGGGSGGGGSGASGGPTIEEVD
Sequence of UniProt Q969N2 (Q969N2 whole entry): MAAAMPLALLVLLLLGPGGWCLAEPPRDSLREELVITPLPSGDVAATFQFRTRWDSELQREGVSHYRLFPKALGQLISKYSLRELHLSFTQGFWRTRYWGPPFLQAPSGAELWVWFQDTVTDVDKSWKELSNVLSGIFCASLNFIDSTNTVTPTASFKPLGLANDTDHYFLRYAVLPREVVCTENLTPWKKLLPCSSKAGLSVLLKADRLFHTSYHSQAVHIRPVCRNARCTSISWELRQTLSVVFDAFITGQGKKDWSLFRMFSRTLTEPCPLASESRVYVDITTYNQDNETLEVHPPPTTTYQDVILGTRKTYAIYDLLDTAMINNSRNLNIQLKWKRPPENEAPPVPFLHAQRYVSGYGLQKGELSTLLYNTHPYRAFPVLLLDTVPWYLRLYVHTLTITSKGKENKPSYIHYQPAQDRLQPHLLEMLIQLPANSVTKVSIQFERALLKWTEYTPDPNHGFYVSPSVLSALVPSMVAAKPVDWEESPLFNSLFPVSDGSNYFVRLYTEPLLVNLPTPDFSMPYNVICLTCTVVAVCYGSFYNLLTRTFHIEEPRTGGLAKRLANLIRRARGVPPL
Sequence of UniProt Q96F63 (Q96F63 whole entry): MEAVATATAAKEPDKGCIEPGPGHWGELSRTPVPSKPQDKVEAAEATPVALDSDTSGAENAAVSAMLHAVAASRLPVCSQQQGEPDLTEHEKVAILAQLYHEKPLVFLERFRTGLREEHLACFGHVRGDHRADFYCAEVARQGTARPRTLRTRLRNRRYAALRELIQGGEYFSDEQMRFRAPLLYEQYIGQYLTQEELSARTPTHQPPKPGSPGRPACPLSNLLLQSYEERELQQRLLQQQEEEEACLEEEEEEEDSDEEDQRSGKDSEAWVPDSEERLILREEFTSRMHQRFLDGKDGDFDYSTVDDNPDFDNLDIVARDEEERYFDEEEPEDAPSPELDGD
Sequence of UniProt P30041 (P30041 whole entry): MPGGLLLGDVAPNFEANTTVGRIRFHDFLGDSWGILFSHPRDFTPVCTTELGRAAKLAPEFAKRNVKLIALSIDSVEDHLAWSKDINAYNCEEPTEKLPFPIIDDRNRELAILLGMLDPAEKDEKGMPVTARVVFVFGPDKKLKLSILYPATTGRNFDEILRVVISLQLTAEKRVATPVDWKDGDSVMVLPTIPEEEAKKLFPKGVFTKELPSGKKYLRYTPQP
Sequence of UniProt Q93052 (Q93052 whole entry): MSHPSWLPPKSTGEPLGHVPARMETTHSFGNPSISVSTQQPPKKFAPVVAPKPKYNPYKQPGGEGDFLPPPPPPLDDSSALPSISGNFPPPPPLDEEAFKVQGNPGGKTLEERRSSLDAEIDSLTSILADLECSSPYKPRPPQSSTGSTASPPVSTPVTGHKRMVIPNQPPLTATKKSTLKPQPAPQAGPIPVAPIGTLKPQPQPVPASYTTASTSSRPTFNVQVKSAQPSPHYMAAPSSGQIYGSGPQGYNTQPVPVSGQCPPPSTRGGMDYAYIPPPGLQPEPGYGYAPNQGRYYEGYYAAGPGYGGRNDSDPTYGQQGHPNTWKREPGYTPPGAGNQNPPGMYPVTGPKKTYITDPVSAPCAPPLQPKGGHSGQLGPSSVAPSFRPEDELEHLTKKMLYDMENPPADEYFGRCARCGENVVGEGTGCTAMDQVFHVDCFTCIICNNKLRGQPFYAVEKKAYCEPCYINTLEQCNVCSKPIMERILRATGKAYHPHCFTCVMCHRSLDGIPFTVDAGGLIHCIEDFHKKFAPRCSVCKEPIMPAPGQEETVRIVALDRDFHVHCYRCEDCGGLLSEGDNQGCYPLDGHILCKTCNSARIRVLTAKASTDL
Sequence of UniProt Q9BV68 (Q9BV68 whole entry): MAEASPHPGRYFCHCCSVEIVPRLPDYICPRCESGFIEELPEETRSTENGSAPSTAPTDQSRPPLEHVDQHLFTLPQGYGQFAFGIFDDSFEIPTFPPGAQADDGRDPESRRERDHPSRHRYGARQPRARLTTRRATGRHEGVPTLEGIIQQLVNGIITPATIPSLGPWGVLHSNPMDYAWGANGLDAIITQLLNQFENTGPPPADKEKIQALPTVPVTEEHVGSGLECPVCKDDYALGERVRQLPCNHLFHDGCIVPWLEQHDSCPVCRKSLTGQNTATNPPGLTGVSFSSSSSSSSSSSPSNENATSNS
Sequence of UniProt O60749 (O60749 whole entry): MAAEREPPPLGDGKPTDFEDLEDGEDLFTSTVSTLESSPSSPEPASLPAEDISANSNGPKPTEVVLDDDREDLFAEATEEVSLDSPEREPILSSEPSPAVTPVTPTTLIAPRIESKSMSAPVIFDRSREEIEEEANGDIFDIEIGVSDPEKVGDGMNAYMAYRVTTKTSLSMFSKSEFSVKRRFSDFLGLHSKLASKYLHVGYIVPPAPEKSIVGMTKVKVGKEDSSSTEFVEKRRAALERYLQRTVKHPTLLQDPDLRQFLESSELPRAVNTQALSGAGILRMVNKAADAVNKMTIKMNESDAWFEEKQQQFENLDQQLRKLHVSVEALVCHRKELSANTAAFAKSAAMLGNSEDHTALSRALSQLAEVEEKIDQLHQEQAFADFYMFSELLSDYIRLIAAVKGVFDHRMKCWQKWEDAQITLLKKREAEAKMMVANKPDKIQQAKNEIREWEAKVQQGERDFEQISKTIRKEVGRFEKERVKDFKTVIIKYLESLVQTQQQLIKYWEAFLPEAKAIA
Sequence of UniProt Q13601 (Q13601 whole entry): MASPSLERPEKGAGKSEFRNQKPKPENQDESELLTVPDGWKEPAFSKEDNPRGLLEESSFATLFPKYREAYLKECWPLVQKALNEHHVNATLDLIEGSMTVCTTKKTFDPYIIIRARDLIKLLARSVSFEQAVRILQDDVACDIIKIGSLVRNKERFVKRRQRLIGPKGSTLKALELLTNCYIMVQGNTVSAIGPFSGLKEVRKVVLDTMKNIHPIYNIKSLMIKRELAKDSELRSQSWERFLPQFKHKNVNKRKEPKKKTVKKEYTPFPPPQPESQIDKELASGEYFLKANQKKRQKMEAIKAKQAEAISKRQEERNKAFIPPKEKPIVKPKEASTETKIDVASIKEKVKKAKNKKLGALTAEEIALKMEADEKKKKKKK
Sequence of UniProt Q7Z7H5 (Q7Z7H5 whole entry): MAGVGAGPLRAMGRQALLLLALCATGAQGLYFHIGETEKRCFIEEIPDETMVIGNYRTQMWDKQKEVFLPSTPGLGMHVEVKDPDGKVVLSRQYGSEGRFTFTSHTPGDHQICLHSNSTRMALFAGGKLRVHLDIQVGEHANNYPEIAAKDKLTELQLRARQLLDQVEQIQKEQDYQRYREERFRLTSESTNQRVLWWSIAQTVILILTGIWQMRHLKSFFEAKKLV

Target	thermal stability z-score (lipoamide; [1])	thermal stability z-score (lipoamide; arsenate co-treatment: none)	thermal stability z-score (potassium arsenate)
TGFBR1 (UniProt P36897)	-0.829	0.245	-0.162
DGCR14 (UniProt Q96DF8)	-0.552	0.06	0.724
SUMF1 (UniProt Q8NBK3)	-1	-0.419	-0.194
KRR1 (UniProt Q13601)	-0.00732	0.0711	-0.512
GMIP (UniProt Q9P107)	-0.232	-0.0407	-0.0798
BIN3 (UniProt Q9NQY0)	-0.115	-0.19	-0.201
RAD23B (UniProt P54727)	1.08	1.05	0.357
ADAM10 (UniProt O14672)	-1.72	-1.52	-0.0434
LAP3 (UniProt P28838)	0.405	0.407	1.29
ANKRD28 (UniProt O15084)	-0.25	-0.0938	-0.209
SNX2 (UniProt O60749)	-0.0255	0.0641	0.364
TFAP4 (UniProt Q01664)	0.339	0.809	1.02
CCDC97 (UniProt Q96F63)	-0.00687	0.225	-0.925
MALT1 (UniProt Q9UDY8)	-0.539	0.249	0.37
SLK (UniProt Q9H2G2)	0.413	0.153	-0.419
GNL1 (UniProt P36915)	-0.411	-0.369	0.175
TBL2 (UniProt Q9Y4P3)	-0.257	0.0669	0.366
NDUFB9 (UniProt Q9Y6M9)	0.158	-0.175	-0.937
TMED4 (UniProt Q7Z7H5)	-0.192	-0.249	0.0343
CSTF3 (UniProt Q12996)	0.159	0.0381	-0.661
NFYB (UniProt P25208)	0.446	0.825	-0.691
FLYWCH2 (UniProt Q96CP2)	0.101	0.222	0.0187
SAP30BP (UniProt Q9UHR5)	0.884	0.612	1.03
LRP8 (UniProt Q14114)	-0.785	-0.422	-0.43
NUSAP1 (UniProt Q9BXS6)	0.43	0.187	0.758
FAR1 (UniProt Q8WVX9)	-0.177	-0.0751	0.544
HSPA2 (UniProt P54652)	-0.295	0.552	0.26
RNF126 (UniProt Q9BV68)	-1	-1.02	-2.65

Target	thermal stability z-score (lipoamide; [1])	thermal stability z-score (lipoamide; arsenate co-treatment: none)	thermal stability z-score (potassium arsenate)
AKAP8L (UniProt Q9ULX6)	0.0418	-0.0231	-0.163
RNF219 (UniProt Q5W0B1)	-0.038	-0.0978	0.0297
GGA1 (UniProt Q9UJY5)	-0.523	-0.393	0.27
ULK3 (UniProt Q6PHR2)	-0.27	-0.197	-0.285
UPF3B (UniProt Q9BZI7)	-0.0795	0.00475	0.667
RPS18 (UniProt P62269)	0.389	0.214	-0.81
LMAN1 (UniProt P49257)	-3.38	-2.78	0.757
NDUFB7 (UniProt P17568)	-0.619	-0.28	-0.462
OPHN1 (UniProt O60890)	-0.0389	0.0614	0.0261
DECR2 (UniProt Q9NUI1)	1.26	1.15	1.27
NUDT5 (UniProt Q9UKK9)	0.871	0.881	0.191
TMEM38B (UniProt Q9NVV0)	0.603	-0.085	0.654
SSBP4 (UniProt Q9BWG4)	1.24	1.21	-0.402
UniProt H0YIV9|GATC	-0.219	-0.277	-0.0937
SVIL (UniProt O95425)	0.00545	0.00211	0.279
TCEA1 (UniProt P23193)	0.138	0.297	-0.117
PITX1 (UniProt P78337)	0.0195	-0.0855	0.027
CD151 (UniProt P48509)	1.24	0.682	0.131
PAF1 (UniProt Q8N7H5)	0.0739	-0.631	-0.714
SERPINB5 (UniProt P36952)	0.571	0.206	0.0156
PIGT (UniProt Q969N2)	-3.54	-2.49	-0.105
LPP (UniProt Q93052)	-0.407	-0.444	-5.37
SH2D3A (UniProt Q9BRG2)	0.139	-0.263	0.0147
GNB2 (UniProt P62879)	0.297	1.21	-0.44
MAGEA1 (UniProt P43355)	0.195	0.0019	1.03
AUP1 (UniProt Q9Y679)	-0.649	-1.09	-0.628
PRDX6 (UniProt P30041)	0.00439	0.281	0.144
